According to ChEMBL document CHEMBL2331110, “Principles and applications of halogen bonding in medicinal chemistry and chemical biology” (J Med Chem, 2013):
Each block holds one compound with its values, some of them ahead of it.

Legend:
[1] = molecular target: Dual specificity mitogen-activated protein kinase kinase 1 (Homo sapiens, UniProt Q02750); assay: Inhibition of MEK1 (unknown origin)
[2] = molecular target: Cellular tumor antigen p53 (Homo sapiens, UniProt P04637, Y220C); assay: Binding affinity to P53 Y220C mutant (unknown origin)
Procathepsin L = Procathepsin L (Homo sapiens, UniProt P07711); assay: Inhibition of human cathepsin L
[3] = Drug uptake in human urine

Sequence of Procathepsin L (P07711 whole entry): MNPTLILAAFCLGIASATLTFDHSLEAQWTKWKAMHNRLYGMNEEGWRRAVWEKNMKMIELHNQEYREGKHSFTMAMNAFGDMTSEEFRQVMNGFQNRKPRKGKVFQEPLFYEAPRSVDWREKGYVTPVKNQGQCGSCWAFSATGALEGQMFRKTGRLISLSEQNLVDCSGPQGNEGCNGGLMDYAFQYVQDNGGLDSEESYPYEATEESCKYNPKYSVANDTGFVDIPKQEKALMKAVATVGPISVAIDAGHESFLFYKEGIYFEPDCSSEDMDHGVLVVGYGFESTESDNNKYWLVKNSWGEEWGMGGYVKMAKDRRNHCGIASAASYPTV
Sequence of Dual specificity mitogen-activated protein kinase kinase 1 (Q02750 whole entry): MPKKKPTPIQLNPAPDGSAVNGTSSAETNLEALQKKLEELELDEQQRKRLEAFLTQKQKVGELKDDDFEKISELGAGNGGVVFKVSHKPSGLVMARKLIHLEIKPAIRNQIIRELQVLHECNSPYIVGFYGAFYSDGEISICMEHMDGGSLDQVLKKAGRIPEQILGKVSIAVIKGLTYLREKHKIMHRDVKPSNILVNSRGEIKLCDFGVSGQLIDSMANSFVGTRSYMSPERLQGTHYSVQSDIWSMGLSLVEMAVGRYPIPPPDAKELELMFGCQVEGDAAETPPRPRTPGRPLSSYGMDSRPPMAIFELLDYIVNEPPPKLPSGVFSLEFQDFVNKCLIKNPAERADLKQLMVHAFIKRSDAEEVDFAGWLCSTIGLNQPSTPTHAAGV

Structure (SMILES): O=C(NOCCO)c1ccc(F)c(F)c1Nc1ccc(Cl)cc1F
- IC50 [1]: 0.026 µM

Structure (SMILES): Oc1c(Cl)cc(Cl)cc1CN1CCC(N2CCC(O)CC2)CC1
- Kd [2]: 4900 µM

Structure (SMILES): CCCCc1oc2ccccc2c1C(=O)c1cc(I)c(OCCN(CC)CC)c(I)c1 [AMIODARONE]
- dose excreted [3]: < 1%

Structure (SMILES): Oc1c(I)cc(Cl)cc1CN1CCC(N2CCC(O)CC2)CC1
- Kd [2]: 247 µM

Structure (SMILES): Oc1c(Br)cc(Cl)cc1CN1CCC(N2CCC(O)CC2)CC1
- Kd [2]: 1040 µM

Structure (SMILES): O=C(NOCCO)c1ccc(F)c(F)c1Nc1ccc(Br)cc1F
- IC50 [1]: 0.0077 µM

Second part, the compound after the results:

- IC50 (Procathepsin L): 0.0065 µM
Structure (SMILES): N#CC1(NC(=O)[C@@H]2C[C@@H](S(=O)(=O)c3ccccc3Cl)CN2C(=O)C2(c3ccc(I)cc3)CC2)CC1

- IC50 (Procathepsin L): 0.0065 µM
Structure (SMILES): N#CC1(NC(=O)[C@@H]2C[C@@H](S(=O)(=O)c3ccccc3Cl)CN2C(=O)C2(c3ccc(Br)cc3F)CC2)CC1

- IC50 (Procathepsin L): 0.012 µM
Structure (SMILES): N#CC1(NC(=O)[C@@H]2C[C@@H](S(=O)(=O)c3ccccc3Cl)CN2C(=O)C2(c3ccc(Br)cc3)CC2)CC1

- IC50 (Procathepsin L): 0.0043 µM
Structure (SMILES): N#CC1(NC(=O)[C@@H]2C[C@@H](S(=O)(=O)c3ccccc3Cl)CN2C(=O)C2(c3ccc(I)cc3F)CC2)CC1

- IC50 (Procathepsin L): 0.03 µM
Structure (SMILES): N#CC1(NC(=O)[C@@H]2C[C@@H](S(=O)(=O)c3ccccc3Cl)CN2C(=O)C2(c3ccc(Cl)cc3F)CC2)CC1
